The target of data set [1] is CYP3A4 (Homo sapiens, UniProt P08684). The experiment in a line: (§1) Time dependent inhibition of CYP3A4 in human liver microsomes preincubated for 30 mins. In kind it is ADME, Microsome. The note with it: human, liver microsomes.
The target of data set [2] is Cytochrome P450 3A4 (Homo sapiens, UniProt P08684). The data set is described as §1. In kind it is ADME, Microsome.
Data set [3] deals with T1, Phosphatidylinositol 4,5-bisphosphate 3-kinase catalytic subunit delta isoform (Homo sapiens, UniProt O00329).
T1 sequence (O00329 whole entry): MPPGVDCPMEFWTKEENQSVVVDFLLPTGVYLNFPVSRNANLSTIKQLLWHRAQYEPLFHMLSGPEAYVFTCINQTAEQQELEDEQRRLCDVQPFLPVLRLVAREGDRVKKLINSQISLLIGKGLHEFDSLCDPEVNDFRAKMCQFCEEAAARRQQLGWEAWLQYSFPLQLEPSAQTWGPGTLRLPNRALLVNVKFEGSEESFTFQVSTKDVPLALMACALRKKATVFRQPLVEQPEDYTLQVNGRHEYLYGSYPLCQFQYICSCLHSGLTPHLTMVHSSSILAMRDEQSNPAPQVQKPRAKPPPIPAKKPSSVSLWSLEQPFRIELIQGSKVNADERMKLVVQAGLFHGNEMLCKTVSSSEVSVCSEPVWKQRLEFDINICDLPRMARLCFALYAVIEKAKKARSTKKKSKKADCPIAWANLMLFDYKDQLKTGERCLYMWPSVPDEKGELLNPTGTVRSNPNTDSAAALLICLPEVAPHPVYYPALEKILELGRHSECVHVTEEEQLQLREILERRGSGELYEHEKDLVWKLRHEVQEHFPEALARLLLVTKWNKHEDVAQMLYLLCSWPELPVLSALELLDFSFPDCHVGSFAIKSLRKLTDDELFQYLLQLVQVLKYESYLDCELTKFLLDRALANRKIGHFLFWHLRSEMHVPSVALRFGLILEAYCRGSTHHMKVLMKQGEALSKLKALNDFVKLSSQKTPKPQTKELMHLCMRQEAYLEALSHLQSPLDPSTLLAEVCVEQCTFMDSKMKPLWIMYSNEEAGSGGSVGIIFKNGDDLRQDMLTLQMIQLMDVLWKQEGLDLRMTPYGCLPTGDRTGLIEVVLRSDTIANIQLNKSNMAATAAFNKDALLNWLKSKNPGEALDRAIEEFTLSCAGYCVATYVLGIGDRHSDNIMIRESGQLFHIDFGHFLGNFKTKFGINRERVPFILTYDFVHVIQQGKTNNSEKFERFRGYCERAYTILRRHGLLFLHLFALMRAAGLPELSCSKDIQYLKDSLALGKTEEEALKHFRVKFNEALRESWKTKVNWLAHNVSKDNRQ
Description: Binding affinity to PI3Kdelta after 30 mins by competitive fluorescence polarization assay

Data set [4] concerns Liver microsomes. The experiment in a line: Metabolic stability in human liver microsomes. The data set is classed as ADME, Microsome.
Data set [5] in a line: Selectivity ratio of IC50 for PI3Kbeta to IC50 for PI3Kdelta.
Data set [6] is described as follows: Volume of distribution at steady state in […] Wistar rat at 0.5 mg/kg, iv and 2 mg/kg, po. As to conditions: in vivo, read-out: Vdss. In kind it is ADME, organism-based.
The test system of data set [7] is Liver microsomes. The experiment in a line: Metabolic stability in rat liver microsomes. The data set is classed as ADME, Microsome.
Data set [8] can be described thus: Selectivity ratio of IC50 for PI3Kalpha to IC50 for PI3Kdelta.
The nature of data set [9]: Oral bioavailability in […] Wistar rat at 2 mg/kg. The data set is classed as ADME, organism-based. As to conditions: in vivo.
Data set [10] can be described thus: Selectivity ratio of IC50 for PI3Kgamma to IC50 for PI3Kdelta.
The nature of data set [11]: Clearance in […] Wistar rat at 0.5 mg/kg, iv and 2 mg/kg, po. As to conditions: in vivo. The data set is classed as ADME, organism-based.

Structures are written as SMILES.

Sequence of Cytochrome P450 3A4 (P08684 whole entry, canonical isoform): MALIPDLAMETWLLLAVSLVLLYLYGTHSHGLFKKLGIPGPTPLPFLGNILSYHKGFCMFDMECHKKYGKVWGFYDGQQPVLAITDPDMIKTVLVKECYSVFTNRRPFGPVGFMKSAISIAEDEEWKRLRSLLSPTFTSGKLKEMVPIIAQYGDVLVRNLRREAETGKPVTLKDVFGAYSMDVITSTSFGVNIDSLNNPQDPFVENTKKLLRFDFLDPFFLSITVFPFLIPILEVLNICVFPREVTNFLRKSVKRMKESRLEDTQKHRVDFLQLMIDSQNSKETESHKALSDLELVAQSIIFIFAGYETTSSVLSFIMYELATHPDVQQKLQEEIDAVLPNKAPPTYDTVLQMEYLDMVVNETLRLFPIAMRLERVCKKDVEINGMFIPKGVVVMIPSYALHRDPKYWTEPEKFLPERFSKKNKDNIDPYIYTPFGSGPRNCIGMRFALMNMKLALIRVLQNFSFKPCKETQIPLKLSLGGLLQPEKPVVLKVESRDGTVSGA
Sequence of CYP3A4 (P08684 whole entry): as the sequence (P08684 whole entry, canonical isoform) above

`CC(C)(C(N)=O)N1CCN(Cc2cc3nc(-c4c(F)ccc5[nH]ccc45)nc(N4CCOCC4)c3s2)CC1`: the kinact at 30 min in data set [1] was 0.00123 s⁻¹. The results for the IC50 in data set [2] and in data set [3] were 1.5 µM and 3 nM, respectively. The molecule also had a Ki in data set [2] of 6.6 µM. The Stability in data set [4] is reported as 82.5%; in data set [7], 90.8%. Also, the Ratio IC50 was found to be 102 in data set [5], 194 in data set [8] and 1880 in data set [10]. For the same molecule, the Vd in data set [6] stood at 2.38 L/kg. The same molecule yielded a bioavailability in data set [9] of 75.2%. Moreover, the clearance in data set [11] came out at 31.3 mL/min/kg.

As to `Fc1ccc2[nH]ccc2c1-c1nc(N2CCOCC2)c2sc(CN3CCN4CCOC[C@H]4C3)cc2n1`, the kinact at 30 min in [1] was 0.0008 s⁻¹. Also, the IC50 in data set [2] was found to be 7 µM; in [3] it was 9 nM. The same molecule showed a Ki in data set [2] of 78 µM. For the same molecule, the figures for the Stability in data set [4] and in data set [7] were 68.7% and 72.5%, respectively. For the same molecule, the results for the Ratio IC50 in data set [5], in data set [8] and in data set [10] were 69, 42 and 806, respectively. Also, the Vd in data set [6] is 2.76 L/kg. Further, in data set [9], the bioavailability is 75.5%. Moreover, the clearance in data set [11] is 25.2 mL/min/kg.

(Values after ChEMBL document CHEMBL2163297, “Discovery of novel PI3-kinase δ specific inhibitors for the treatment of rheumatoid arthritis: taming CYP3A4 time-dependent inhibition” (J Med Chem, 2012).)
